According to patent publication US20200345011A1, “METHOD OF […] GROWTH IN SOIL” (CH2O Incorporated, priority 2008, published 2020):

Key:
[1] = Crop yield and fruit quality from treated soils; type: in vivo
Excerpt: Water (27.5%), PBTC (17.5%) and hydrochloric acid (HCl) (55%) were admixed to form a first solution. Water (85%) and sodium chlorite (15%) were admixed to form a second solution. The first and second solutions were combined to form a combined solution. Sufficient contact time was allowed in the mixing vessel 12 to convert a substantial portion of the sodium chlorite solution into chlorine dioxide. The combined solution can also be referred to as chlorine dioxide. For test purposes, five soil beds were prepared. These beds were covered with sheet plastic. […] […] […] […] The fifth soil bed was treated with methyl-bromide at E.P.A. label recommended dose rates.

[2] = Decomposition in soil and consequences to the environment; conditions: soil bed treatment
Excerpt: (§1) Water (27.5%), PBTC (17.5%) and hydrochloric acid (HCl) (55%) were admixed to form a first solution. Water (85%) and sodium chlorite (15%) were admixed to form a second solution. The first and second solutions were combined to form a combined solution. Sufficient contact time was allowed in the mixing vessel 12 to convert a substantial portion of the sodium chlorite solution into chlorine dioxide. The combined solution can also be referred to as chlorine dioxide. For test purposes, five soil beds were prepared. These beds were covered with sheet plastic. In the first bed, 150 ppm of chlorine dioxide was added irrigation water and the mixture was introduced to the soil bed until the soil bed was saturated. In the second soil bed, 350 ppm of chlorine dioxide was added to irrigation water and the mixture was introduced into the second soil bed until the second soil bed was saturated. The third soil bed received 750 ppm of chlorine dioxide in irrigation water until that bed was saturated. The fourth soil bed received a mixture of 950 ppm of chlorine dioxide in irrigation water until that soil bed was saturated. The fifth soil bed was treated with methyl-bromide at E.P.A. label recommended dose rates.

[3] = system: weed and undesirable plant growth; test: Weed growth suspension in treated, plastic-covered soil beds; type: in vivo; conditions: after six days of treatment
Excerpt: as §1

[4] = soil treated with methyl bromide, used as at EPA label requirements

| Compound | Crates/Acres ([1]; 75 ppm solution) [Crates/Acres] | Fruit Grams ([1]; 75 ppm solution) [Grams] | Marketable Crates/Acre ([1]; 75 ppm solution) [Crates/Acre] | Crates/Acres ([1]; 175 ppm solution) [Crates/Acres] | Fruit Grams ([1]; 175 ppm solution) [Grams] | Marketable Crates/Acre ([1]; 175 ppm solution) [Crates/Acre] | Crates/Acres ([1]; 375 ppm solution) [Crates/Acres] | Fruit Grams ([1]; 375 ppm solution) [Grams] | Marketable Crates/Acre ([1]; 375 ppm solution) [Crates/Acre] | Crates/Acres ([1]; 475 ppm solution) [Crates/Acres] | Fruit Grams ([1]; 475 ppm solution) [Grams] | Marketable Crates/Acre ([1]; 475 ppm solution) [Crates/Acre] | Yield performance of treated soils versus methyl bromide treated soils ([1]; comparison in words) | Yield at the higher chlorine dioxide levels ([1]; higher versus lower chlorine dioxide levels, in words) | Consequences to the environment [2] | Suspension of weed and undesirable plant growth ([3]; all four dosages (150, 350, 750, 950 ppm in irrigation water, bed saturated)) | Crates/Acres [1, 4] [Crates/Acres] | Fruit Grams [1, 4] [Grams] | Marketable Crates/Acre [1, 4] [Crates/Acre] | Effectiveness as a fumigant ([3]; E.P.A. label recommended dose rates) |
| --- | --- | --- | --- | --- | --- | --- | --- | --- | --- | --- | --- | --- | --- | --- | --- | --- | --- | --- | --- | --- |
| [O][Cl+][O-] [Chlorine Dioxide, chlorine dioxide] | 495 | 25.5 | 431 | 483 | 26.6 | 435 | 429 | 27.1 | 572 | 651 | 28.9 | 605 | exceeded the methyl bromide treated soils | greater yields | without any negative consequences to the environment | suspend weed and undesirable plant growth entirely |  |  |  |  |
| CBr [Methyl Bromide, Methyl-bromide, reference compound] |  |  |  |  |  |  |  |  |  |  |  |  |  |  | had an adverse effect on the environment |  | 455 | 32.8 | 428 | effective as a fumigant |
